The values that follow come from patent US7511144B2, “Reverse hydroxamic acid derivatives” (Kaken Pharmaceutical Co., Ltd., priority 2001, dated 2009).

Common to all, as to assay type: biochemical
Assay [1] addresses T1, Human MMP1 (Homo sapiens, UniProt P03956).
T1 construct: purchased Calbiochem 444208
T1 sequence (P03956 100-469): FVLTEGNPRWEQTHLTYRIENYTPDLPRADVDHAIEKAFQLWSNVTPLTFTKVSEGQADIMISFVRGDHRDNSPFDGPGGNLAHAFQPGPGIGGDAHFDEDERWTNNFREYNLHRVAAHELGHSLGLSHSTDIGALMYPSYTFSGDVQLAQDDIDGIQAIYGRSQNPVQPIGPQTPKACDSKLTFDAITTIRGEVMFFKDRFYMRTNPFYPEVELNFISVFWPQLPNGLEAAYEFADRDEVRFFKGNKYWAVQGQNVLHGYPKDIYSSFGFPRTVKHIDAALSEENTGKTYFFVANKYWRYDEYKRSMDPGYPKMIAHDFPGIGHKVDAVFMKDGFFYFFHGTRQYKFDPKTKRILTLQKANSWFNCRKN
In words: MMP1 inhibition experiment. Conditions: read-out: IC50 value MMP-1.
Protocol: (§1) The methods of inhibition experiments carried out for various MMPs are described below.
This enzyme solution in amount of 10 μL was diluted to 90 μL with the assay buffer A, which was added to 90 μL of 20 μM fluorescent substrate (Dnp-Pro-Cha(β-cyclohexylalanyl)-Gly-Cys(Me)-His-Ala-Lys(Nma)-NH2) prepared in the assay buffer B, followed by reaction for 5 hours at 37° C.

For assay [2], the target named is T2, Human MMP9 (Homo sapiens, UniProt P14780).
T2 construct: purchased Calbiochem 444231
T2 sequence (P14780 107-707 limits assumed): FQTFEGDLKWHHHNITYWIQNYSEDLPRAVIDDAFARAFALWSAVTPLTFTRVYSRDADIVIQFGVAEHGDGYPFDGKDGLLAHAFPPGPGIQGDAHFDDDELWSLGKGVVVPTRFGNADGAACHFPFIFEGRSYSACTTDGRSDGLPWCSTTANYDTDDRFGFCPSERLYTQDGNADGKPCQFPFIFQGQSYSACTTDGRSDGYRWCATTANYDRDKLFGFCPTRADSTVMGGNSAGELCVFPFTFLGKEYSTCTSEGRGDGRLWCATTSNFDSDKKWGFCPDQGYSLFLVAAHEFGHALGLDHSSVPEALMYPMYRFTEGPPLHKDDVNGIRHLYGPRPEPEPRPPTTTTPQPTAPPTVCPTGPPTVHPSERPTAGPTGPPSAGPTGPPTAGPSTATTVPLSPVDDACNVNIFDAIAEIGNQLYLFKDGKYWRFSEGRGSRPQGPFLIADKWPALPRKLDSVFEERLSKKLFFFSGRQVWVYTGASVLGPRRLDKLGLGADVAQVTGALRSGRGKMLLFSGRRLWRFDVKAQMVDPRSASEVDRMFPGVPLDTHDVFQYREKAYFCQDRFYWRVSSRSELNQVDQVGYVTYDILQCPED
Kind of assay: MMP9 inhibition experiment. Conditions: read-out: IC50 value MMP-9.
Protocol: as §1
This enzyme solution in amount of 1 μL was diluted to 90 μL with the assay buffer A, which was added to 90 μL of 20 μM fluorescent substrate (Dnp-Pro-Cha-Gly-Cys(Me)-His-Ala-Lys(Nma)-NH2) prepared in the assay buffer B, followed by reaction for 4 hours at 37° C.

For assay [3], the target named is T3, Human MMP14 (Homo sapiens, UniProt P50281).
T3 construct: purchased Biogenesis or Calbiochem 5980-1461 or 475935
In words: MMP14 inhibition experiment. As to conditions: concentration required for 50% inhibition of enzyme activity; read-out: IC50 value MMP-14. An outline of the steps: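 Fluorescence assay: substrate Dnp-Pro-Cha-Gly-Cys(Me)-His-Ala-Lys(Nma)-NH2 (20 μM before equal-volume mixing) incubated at 37° C for 5 hours with 4 ng human MMP14.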

Assay [4] addresses T4, Human MMP2 (Homo sapiens, UniProt P08253).
T4 construct: purchased Calbiochem 444213
T4 sequence (P08253 110-660): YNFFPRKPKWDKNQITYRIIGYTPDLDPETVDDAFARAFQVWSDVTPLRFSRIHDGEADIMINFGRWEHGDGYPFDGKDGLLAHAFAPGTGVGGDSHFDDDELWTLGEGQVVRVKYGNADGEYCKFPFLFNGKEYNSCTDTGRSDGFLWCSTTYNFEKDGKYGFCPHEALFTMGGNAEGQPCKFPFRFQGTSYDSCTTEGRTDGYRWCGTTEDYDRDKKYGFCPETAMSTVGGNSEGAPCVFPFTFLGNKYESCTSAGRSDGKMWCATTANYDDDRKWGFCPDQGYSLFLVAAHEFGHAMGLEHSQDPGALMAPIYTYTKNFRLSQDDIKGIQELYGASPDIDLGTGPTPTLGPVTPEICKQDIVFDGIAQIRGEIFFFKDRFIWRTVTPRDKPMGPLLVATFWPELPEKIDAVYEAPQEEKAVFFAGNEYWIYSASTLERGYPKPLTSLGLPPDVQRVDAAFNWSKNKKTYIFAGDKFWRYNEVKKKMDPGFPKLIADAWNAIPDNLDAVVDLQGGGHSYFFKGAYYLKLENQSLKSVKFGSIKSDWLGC
Kind of assay: MMP2 inhibition experiment. As to conditions: concentration required for 50% inhibition of enzyme activity; read-out: IC50 value MMP-2.
Protocol: This enzyme solution in amount of 10 μL was diluted to 90 μL with the assay buffer A, which was added to 90 μL of 20 μM fluorescent substrate (MOCAc((7-methoxycoumarin-4-yl)acetyl)-Pro-Leu-Gly-Leu-A2pr(Dnp)-Ala-Arg-NH2, Peptide Institute, Inc., #3163-v) prepared in the assay buffer B, followed by reaction for 5 hours at 37° C.

Assay [5] addresses T5, Human MMP8 (Homo sapiens, UniProt P22894).
T5 construct: purchased Calbiochem 444229
In words: MMP8 inhibition experiment. Conditions: concentration required for 50% inhibition of enzyme activity; read-out: IC50 value MMP-8. The gist of the method:
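Human MMP8 activated with APMA for 1 h at 37° C, then incubated with fluorogenic peptide MOCAc-Pro-Leu-Gly-Leu-A2pr(Dnp)-Ala-Arg-NH2 (20 μM stock) for 5 hours at 37° C. Fluorescent substrate cleavage serves as read-out.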

The target in assay [6] is T6, Human MMP3 (Homo sapiens, UniProt P08254).
T6 construct: purchased Calbiochem 444217
T6 sequence (P08254 100-272 limits assumed): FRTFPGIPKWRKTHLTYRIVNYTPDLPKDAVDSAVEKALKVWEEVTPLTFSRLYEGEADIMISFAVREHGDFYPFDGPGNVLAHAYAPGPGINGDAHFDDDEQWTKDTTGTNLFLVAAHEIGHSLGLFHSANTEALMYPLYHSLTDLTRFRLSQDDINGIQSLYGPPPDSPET
In words: MMP3 inhibition experiment. Conditions: concentration required for 50% inhibition of enzyme activity; read-out: IC50 value MMP-3. An outline of the steps:
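Fluorescence-quenched substrate NFF-3 (MOCAc/Dnp peptide, 20 μM as prepared) cleaved by 5 ng human MMP3 over 5 hours at 37° C, with inhibition measured from substrate fluorescence.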

In assay [7] the target is T7, TACE (Homo sapiens, UniProt P78536).
T7 construct: made in house; host or cells: mammalian cells or insect cells
T7 sequence (P78536 215-824): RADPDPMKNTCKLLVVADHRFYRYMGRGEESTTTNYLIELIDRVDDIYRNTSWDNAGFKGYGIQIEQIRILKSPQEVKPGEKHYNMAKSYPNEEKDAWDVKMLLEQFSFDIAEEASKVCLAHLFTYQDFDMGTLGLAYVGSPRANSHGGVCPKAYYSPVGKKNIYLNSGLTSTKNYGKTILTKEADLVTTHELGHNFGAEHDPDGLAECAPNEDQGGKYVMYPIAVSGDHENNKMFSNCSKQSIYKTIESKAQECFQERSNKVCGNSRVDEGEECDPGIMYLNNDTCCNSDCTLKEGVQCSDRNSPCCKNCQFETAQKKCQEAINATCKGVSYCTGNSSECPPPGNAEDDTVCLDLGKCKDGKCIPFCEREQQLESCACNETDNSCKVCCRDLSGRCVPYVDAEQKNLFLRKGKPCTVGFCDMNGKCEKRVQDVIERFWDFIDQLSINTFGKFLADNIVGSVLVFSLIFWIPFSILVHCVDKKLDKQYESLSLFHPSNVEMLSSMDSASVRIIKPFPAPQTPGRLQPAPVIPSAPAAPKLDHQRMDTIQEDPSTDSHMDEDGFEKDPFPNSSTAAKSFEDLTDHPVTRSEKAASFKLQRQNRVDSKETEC
In words: TACE inhibition experiment (in vitro).
Protocol: TACE inhibition experiments were conducted using TACE obtained as above as an enzyme and by measuring TACE activity in the presence or absence of a test substance using Nma (N-metylanthranilic acid)-[sequence]Dnp(dinitrophenyl)-D-Arg-NH2 being a fluorescent synthetic substrate which contains the sequence of cleavage site of membrane-bound TNF by TACE, as a substrate.
More specifically, 14 units of an enzyme solution (1 unit is defined as the amount of enzyme which degrades 1 pmol of the substrate per minute at 25° C.) which was prepared in 90 μL of assay buffer A (50 mM Tris-HCl buffer (pH 7.5) containing 200 mM sodium chloride, 5 mM calcium chloride, 10 μM zinc sulfate, 0.004% sodium azide and 2 mg/mL bovine serum albumin) and 90 μL of 20 μM fluorescent synthetic substrate prepared in assay buffer B (50 mM Tris-HCl buffer (pH 7.5) containing 200 mM sodium chloride, 5 mM calcium chloride, 10 μM zinc sulfate, 0.004% sodium azide and 0.05% PLURONIC F-68) are mixed and reacted for 2 hours at 37° C.

Assay [8] deals with T8, Human MMP17 (Homo sapiens, UniProt Q9ULZ9).
T8 construct: purchased Calbiochem 475940
T8 sequence (Q9ULZ9 126-300 limits assumed): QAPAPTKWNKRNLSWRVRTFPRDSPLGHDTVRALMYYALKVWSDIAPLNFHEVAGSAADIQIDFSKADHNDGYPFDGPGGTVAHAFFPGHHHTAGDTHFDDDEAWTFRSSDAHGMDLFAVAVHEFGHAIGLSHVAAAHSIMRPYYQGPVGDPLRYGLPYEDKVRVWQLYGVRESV
In words: MMP17 inhibition test. Conditions: concentration required for 50% inhibition of enzyme activity; read-out: IC50 value MMP-17.

In assay [9] the target is T9, Human MMP13 (Homo sapiens, UniProt P45452).
T9 construct: purchased Chemicon CC068
Kind of assay: MMP13 inhibition experiment. Conditions: concentration required for 50% inhibition of enzyme activity; read-out: IC50 value MMP-13.
Protocol: Human MMP13 (Chemicon #CC068) in amount of 90 μL (200 ng) was activated by mixing with 10 μL of 10 mM APMA, followed by reaction for 1 hour at 37° C. This enzyme solution in amount of 0.6 μL was diluted to 90 μL with the assay buffer A, which was added to 90 μL of 20 μM fluorescent substrate (Dnp-Pro-Cha-Gly-Cys(Me)-His-Ala-Lys(Nma)-NH2) prepared in the assay buffer B, followed by reaction for 4 hours at 37° C.

T5 sequence (P22894 101-467): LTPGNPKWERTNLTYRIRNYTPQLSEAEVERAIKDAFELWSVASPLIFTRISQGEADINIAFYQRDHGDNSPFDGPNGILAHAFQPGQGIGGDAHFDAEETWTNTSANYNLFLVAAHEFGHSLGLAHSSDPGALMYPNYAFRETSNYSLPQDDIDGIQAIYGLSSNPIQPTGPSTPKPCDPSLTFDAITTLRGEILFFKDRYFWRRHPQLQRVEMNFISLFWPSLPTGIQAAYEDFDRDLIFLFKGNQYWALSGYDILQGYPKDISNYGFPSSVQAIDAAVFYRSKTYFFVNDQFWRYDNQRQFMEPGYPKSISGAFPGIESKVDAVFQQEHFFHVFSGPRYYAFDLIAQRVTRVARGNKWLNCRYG

Turning to `Cc1cc(COc2ccc(S(=O)(=O)CC(C3CCCN(C(=O)c4ccccc4)C3)N(O)C=O)cc2)c2ccccc2n1` (stereo not drawn) [Example I-131], the IC50 in assay [1] stood at 47 µM; in assay [2], 50 µM; in assay [3], 22 µM; in assay [4], 4.4 µM; in [5] it was 4.1 µM; in [6], 0.2 µM. In addition, the IC50 in assay [7] was 0.02 µM; in assay [8] it was 0.1 µM; in assay [9], 3.2 µM.

Take `Cc1cc(COc2ccc(S(=O)(=O)CC(CCC3=CCCC(OC=O)C3)N(O)C=O)cc2)c2ccccc2n1` (stereo not drawn) [Example I-38]: the half-maximal inhibitory concentration (IC50) in [1] was 57 µM; in assay [2], 54 µM; in assay [3], 50 µM; in assay [4], 12 µM; in assay [5] it was 46 µM; in [6], 2 µM. Also, the IC50 stood at 0.012 µM in [7], 2.2 µM in assay [8] and 22 µM in assay [9].

Take `Cc1cc(COc2ccc(S(=O)(=O)CC(CC3CCOCC3)N(O)C=O)cc2)c2ccccc2n1` (stereo not drawn) [Example I-29]: the IC50 in assay [1] was greater than 100 µM; in assay [2] it was greater than 100 µM; in assay [3] it was 90 µM; in assay [4] it was 19 µM; in assay [5], 19 µM; in assay [6] it was 1.8 µM. In addition, the IC50 turned out to be 0.0076 µM in assay [7], 0.96 µM in assay [8] and 18 µM in assay [9].

As to `CCC(CC)CN1CCC(=CC(CS(=O)(=O)c2ccc(OCc3cc(C)nc4ccccc34)cc2)N(O)C=O)CC1` (stereo not drawn) [Example I-44], the IC50 in assay [1] was greater than 100 µM; in assay [2] it was greater than 100 µM; in assay [3], 60 µM; in [4] it was 6.5 µM; in assay [5], 42 µM; in [6], 3 µM. In addition, the IC50 came out at 0.0078 µM in assay [7], 1.1 µM in assay [8] and 20 µM in assay [9].

`COCc1cc(COc2ccc(S(=O)(=O)CC(C=C3CCC(=O)CC3)N(O)C=O)cc2)cc(C)n1` (stereo not drawn) [Example I-119]: the IC50 in assay [1] was greater than 100 µM; in assay [2], greater than 100 µM; in assay [3], greater than 100 µM; in [4], 50 µM; in assay [5], 60 µM; in assay [6], greater than 100 µM. Also, the IC50 in assay [7] stood at 0.32 µM; in assay [8], 58 µM; in assay [9] it was 60 µM.

For the compound `Cc1cccc(C(CS(=O)(=O)c2ccc(OCc3cc(C)nc4ccccc34)cc2)N(O)C=O)c1` (stereo not drawn) [Example I-22], the IC50 in assay [1] was determined as 60 µM; in assay [2], 53 µM; in [3], 42 µM; in [4], 40 µM; in assay [5] it was 59.5 µM; in assay [6], 7.3 µM. The 50% inhibitory concentration (IC50) in assay [7] came to 0.0042 µM; in assay [8] it was 3.5 µM; in assay [9], 21 µM.

As for `Cc1cc(COc2ccc(S(=O)(=O)CC(c3ccccc3C)N(O)C=O)cc2)c2cccc(F)c2n1` (stereo not drawn) [Example I-124, N-{2-[4-(8-fluoro-2-methylquinolin-4-ylmethoxy)benzenesulfonyl]-1-o-tolylethyl}-N-hydroxyformamide], the IC50 in assay [1] is 34 µM; in assay [2], 24 µM; in [3] it was 7 µM; in assay [4], 1.9 µM; in assay [5], 1.9 µM; in [6], 4.8 µM. Besides, the IC50 came to 0.006 µM in assay [7], 4.8 µM in assay [8] and 5.8 µM in assay [9].

On to `Cc1cc(COc2ccc(S(=O)(=O)CC(N(O)C=O)C3(C)CCC4(CC3)OCCO4)cc2)c2ccccc2n1` (stereo not drawn) [Example I-47], for which the concentration for half-maximal inhibition (IC50) is greater than 100 µM in assay [1]; greater than 100 µM in assay [2]; 60 µM in assay [3]; 22 µM in assay [4]; 15 µM in assay [5]; 0.6 µM in [6]. Moreover, the half-maximal inhibitory concentration (IC50) came to 0.03 µM in assay [7], 0.4 µM in assay [8] and 18 µM in assay [9].

Regarding `Cc1cncc(C(CS(=O)(=O)c2ccc(OCc3cc(C)nc4ccccc34)cc2)N(O)C=O)c1` (stereo not drawn) [Example I-31], the IC50 was greater than 100 µM in [1]; greater than 100 µM in [2]; 90 µM in assay [3]; 50 µM in assay [4]; 62 µM in [5]; 3.2 µM in [6]. For the same compound, the results for the concentration for half-maximal inhibition (IC50) in assay [7], in assay [8] and in [9] were 0.0028 µM, 1.8 µM and 26 µM, respectively.

For `Cc1cc(COc2ccc(S(=O)(=O)CC(C=C3CCN(C=O)CC3)N(O)C=O)cc2)c2ccccc2n1` (stereo not drawn) [Example I-43], the IC50 in [1] was greater than 100 µM; in assay [2], greater than 100 µM; in assay [3], greater than 100 µM; in assay [4] it was 50 µM; in [5], 52 µM; in assay [6] it was 11 µM. Further, the IC50 in assay [7] stood at 0.0031 µM; in assay [8], 4.5 µM; in assay [9] it was 65 µM.

For `Cc1cccc(C(CS(=O)(=O)c2ccc(OCc3cc(C)nc4ccc(F)cc34)cc2)N(O)C=O)n1` (stereo not drawn) [Example I-149], the IC50 in assay [1] is greater than 100 µM; in [2], greater than 100 µM; in assay [3] it was 90 µM; in assay [4], 95 µM; in [5], greater than 100 µM; in [6], 26 µM. Besides, the concentration for half-maximal inhibition (IC50) in assay [7] was determined as 0.03 µM; in [8] it was 23 µM; in [9], 35 µM.

Turning to `Cc1cc(COc2ccc(S(=O)(=O)CC([C@H]3CSC(=O)N3C)N(O)C=O)cc2)c2ccccc2n1` (stereo partly drawn) [Example I-136], the IC50 amounted to 48 µM in assay [1]; 50 µM in assay [2]; 50 µM in assay [3]; 26 µM in [4]; 13 µM in assay [5]; 2 µM in assay [6]. The values for the IC50 in [7], in [8] and in [9] were 0.0065 µM, 0.62 µM and 26 µM, respectively.

`COc1ccc(CN2C(=O)SCC2C(CS(=O)(=O)c2ccc(OCc3cc(C)nc4ccccc34)cc2)N(O)C=O)cc1` (stereo not drawn) [Example I-59]: the half-inhibitory concentration (IC50) in [1] was 54 µM; in assay [2] it was greater than 100 µM; in assay [3], 60 µM; in assay [4], 80 µM; in [5], 58 µM; in assay [6] it was 5.6 µM. The 50% inhibitory concentration (IC50) amounted to 0.01 µM in assay [7], 2.6 µM in assay [8] and 35 µM in [9].

As for `COCc1cc(COc2ccc(S(=O)(=O)CC(CC3CCC(=NO)CC3)N(O)C=O)cc2)cc(C)n1` (stereo not drawn) [Example I-122], the concentration for half-maximal inhibition (IC50) was greater than 100 µM in assay [1]; greater than 100 µM in [2]; greater than 100 µM in [3]; 9 µM in assay [4]; 14 µM in assay [5]; 21 µM in assay [6]. Further, the IC50 in assay [7] was found to be 0.2 µM; in assay [8] it was 18 µM; in assay [9], 12 µM.
